Reference: patent publication US9708314B2, “Heterocyclic amide compound” (NISSAN CHEMICAL INDUSTRIES, LTD., priority 2013, dated 2017)

Legend:
Type in all cases: in vivo
Cyperus difformis = assay: Test Example 3: herbicidal effect by application to foliage (Wagner pot, water depth 0.1-0.5 cm); conditions: Nineteenth Table; application to foliage; application herbicide amount 320 g/ha
Description: (§1) 5 Herbicidal ratio of 90% or more (almost completely withered) 4 Herbicidal ratio of 70% or more and less than 90% 3 Herbicidal ratio of 40% or more and less than 70% 2 Herbicidal ratio of 20% or more and less than 40% 1 Herbicidal ratio of 5% or more and less than 20% 0 Herbicidal ratio of 5% or less (almost no effect) [Test Example 3] Herbicidal Effect Test by Application to Foliage After alluvial soil was placed into 1/10000 are of Wagner pot, water was poured and mixed to form a condition having a water depth of 0.1 cm to 0.5 cm. Seeds of Echinochloa crus-galli var. crus-galli, Leptochloa chinensis, Cyperus difformis, and Oryza sativa were sowed and the pot was placed in the greenhouse of 25° C. to 30° C. to grow the plants. After the plants were grown for 14 days, the emulsion agent containing the compound of the present invention prepared in accordance with Formulation Example 2 was diluted with water so as to be a predetermined herbicide amount and the diluted compound was uniformly applied to a stem and leaf part with a small-size spray. Three weeks after the herbicide application, effects on each plant were investigated in accordance with the criteria of Test Example 1. A: Echinochloa oryzicola Vasing., B: Scirpus juncoides, C: Monochoria vaginalis, D: Leptochloa chinensis, E: Cyperus difformis, F: Digitaria ciliaris, G: Setaria viridis, H: Echinochloa crus-galli var. crus-galli, I: Avena fatua, J: Alopecurus myosuroides, K: Lolium multiflorum Lam., L: Apera spica-venti., M: Abutilon theophrasti, N: Amaranthus retroflexus, O: Chenopodium album, P: Stellaria media, Q: Galium spurium, R: Veronica persica, a: transplanted Oryza sativa, b: directly sowed Oryza sativa, c: Zea mays, d: Glycine max, e: Triticum aestivum, f: Beta vulgaris ssp. vulgaris, and g: Brassica campestris L. The application herbicide amount (g/ha) means an amount that a concentration is adjusted so that, when an application amount is converted into per hectare (1 ha), the herbicide is applied by the number of grams (g) of the described value.

[1] = system: Echinochloa crus-galli var. crus-galli; assay: as above; conditions: Nineteenth Table; application to foliage; application herbicide amount 320 g/ha
Description: as §1

Leptochloa chinensis = assay: as above; conditions: Nineteenth Table; application to foliage; application herbicide amount 320 g/ha
Description: as §1

[2] = system: directly sowed Oryza sativa; assay: Test Example 3: effect on crop by application to foliage (Wagner pot, water depth 0.1-0.5 cm); conditions: Nineteenth Table; application to foliage; application herbicide amount 320 g/ha
Description: as §1

Abutilon theophrasti = assay: Test Example 4: herbicidal effect by application to foliage (diluvial soil, plastic box); conditions: Application herbicide amount 320 g/ha
Description: (§2) 5 Herbicidal ratio of 90% or more (almost completely withered) 4 Herbicidal ratio of 70% or more and less than 90% 3 Herbicidal ratio of 40% or more and less than 70% 2 Herbicidal ratio of 20% or more and less than 40% 1 Herbicidal ratio of 5% or more and less than 20% 0 Herbicidal ratio of 5% or less (almost no effect) [Test Example 4] Herbicidal Effect Test by Application to Foliage Sterilized diluvial soil was placed in a plastic box having a length of 21 cm, a width of 13 cm, and a depth of 7 cm. Each of the seeds of Digitaria ciliaris, Setaria viridis, Echinochloa crus-galli var. crus-galli, Avena fatua, Alopecurus myosuroides, Lolium multiflorum Lam., Apera spica-venti., Abutilon theophrasti, Amaranthus retroflexus, Chenopodium album, Stellaria media, Galium spurium, Veronica persica, Zea mays, Glycine max, Oryza sativa, Triticum aestivum, Beta vulgaris ssp. vulgaris, and Brassica campestris L. was sowed in a spot-like manner and was covered with the soil of about 1.5 cm thick. Thereafter, the plants were grown in the greenhouse of 25° C. to 30° C. After the plants were grown for 14 days, the emulsion agent containing the compound of the present invention prepared in accordance with Formulation Example 2 was diluted with water so as to be a predetermined herbicide amount and the diluted compound was uniformly applied to a stem and leaf part with a small-size spray. Three weeks after the herbicide application, effects on each plant were investigated in accordance with the criteria of Test Example 1. A: Echinochloa oryzicola Vasing., B: Scirpus juncoides, C: Monochoria vaginalis, D: Leptochloa chinensis, E: Cyperus difformis, F: Digitaria ciliaris, G: Setaria viridis, H: Echinochloa crus-galli var. crus-galli, I: Avena fatua, J: Alopecurus myosuroides, K: Lolium multiflorum Lam., L: Apera spica-venti., M: Abutilon theophrasti, N: Amaranthus retroflexus, O: Chenopodium album, P: Stellaria media, Q: Galium spurium, R: Veronica persica, a: transplanted Oryza sativa, b: directly sowed Oryza sativa, c: Zea mays, d: Glycine max, e: Triticum aestivum, f: Beta vulgaris ssp. vulgaris, and g: Brassica campestris L. The application herbicide amount (g/ha) means an amount that a concentration is adjusted so that, when an application amount is converted into per hectare (1 ha), the herbicide is applied by the number of grams (g) of the described value.

Alopecurus myosuroides = assay: as above; conditions: Application herbicide amount 320 g/ha
Description: as §2

Apera spica-venti. = assay: as above; conditions: Application herbicide amount 320 g/ha
Description: as §2

Avena fatua = assay: as above; conditions: Application herbicide amount 320 g/ha
Description: as §2

Chenopodium album = assay: as above; conditions: Application herbicide amount 320 g/ha
Description: as §2

Digitaria ciliaris = assay: as above; conditions: Application herbicide amount 320 g/ha
Description: as §2

[3] = system: Echinochloa crus-galli var. crus-galli; assay: as above; conditions: Application herbicide amount 320 g/ha
Description: as §2

Galium spurium = assay: as above; conditions: Application herbicide amount 320 g/ha
Description: as §2

Lolium multiflorum Lam. = assay: as above; conditions: Application herbicide amount 320 g/ha
Description: as §2

Setaria viridis = assay: as above; conditions: Application herbicide amount 320 g/ha
Description: as §2

Veronica persica = assay: as above; conditions: Application herbicide amount 320 g/ha
Description: as §2

[4] = system: Beta vulgaris ssp. vulgaris; assay: Test Example 4: effect on crop by application to foliage (diluvial soil, plastic box); conditions: Application herbicide amount 320 g/ha; effect on crop
Description: as §2

Brassica campestris L. = assay: as above; conditions: Application herbicide amount 320 g/ha; effect on crop
Description: as §2

Glycine max = assay: as above; conditions: Application herbicide amount 320 g/ha; effect on crop
Description: as §2

Triticum aestivum = assay: as above; conditions: Application herbicide amount 320 g/ha; effect on crop
Description: as §2

Zea mays = assay: as above; conditions: Application herbicide amount 320 g/ha; effect on crop
Description: as §2

[5] = system: directly sowed Oryza sativa; assay: as above; conditions: Application herbicide amount 320 g/ha; effect on crop
Description: as §2

| Structure (SMILES) | E (herbicidal effect grade) (Cyperus difformis) | H (herbicidal effect grade) [1] | D (herbicidal effect grade) (Leptochloa chinensis) | b (effect on crop grade) [2] | M (Abutilon theophrasti) | J (Alopecurus myosuroides) | L (Apera spica-venti.) | I (Avena fatua) | O (Chenopodium album) | F (Digitaria ciliaris) | H [3] | K (Lolium multiflorum Lam.) | G (Setaria viridis) | R (Veronica persica) | f [4] | g (Brassica campestris L.) | c (Glycine max) | e (Triticum aestivum) | b (Zea mays) | d [5] | further results |
| --- | --- | --- | --- | --- | --- | --- | --- | --- | --- | --- | --- | --- | --- | --- | --- | --- | --- | --- | --- | --- | --- |
| CON=Cc1nnc2c(C(=O)Nc3nnc(C)o3)ccc(C(F)(F)F)n12 [1-072] | 0 (Herbicidal ratio of 5% or less (almost no effect)) | 2 (Herbicidal ratio of 20% or more and less than 40%) | 1 (Herbicidal ratio of 5% or more and less than 20%) | 0 (Herbicidal ratio of 5% or less (almost no effect)) | 1 (Herbicidal ratio of 5% or more and less than 20%) | 0 (Herbicidal ratio of 5% or less (almost no effect)) | 0 (Herbicidal ratio of 5% or less (almost no effect)) | 0 (Herbicidal ratio of 5% or less (almost no effect)) | 4 (Herbicidal ratio of 70% or more and less than 90%) | 0 (Herbicidal ratio of 5% or less (almost no effect)) | 3 (Herbicidal ratio of 40% or more and less than 70%) | 0 (Herbicidal ratio of 5% or less (almost no effect)) | 0 (Herbicidal ratio of 5% or less (almost no effect)) | 1 (Herbicidal ratio of 5% or more and less than 20%) | 0 (Herbicidal ratio of 5% or less (almost no effect)) | 0 (Herbicidal ratio of 5% or less (almost no effect)) | 0 (Herbicidal ratio of 5% or less (almost no effect)) | 0 (Herbicidal ratio of 5% or less (almost no effect)) | 0 (Herbicidal ratio of 5% or less (almost no effect)) | 0 (Herbicidal ratio of 5% or less (almost no effect)) | Q (Galium spurium): 0 (Herbicidal ratio of 5% or less (almost no effect)) |
| Cc1nnc(NC(=O)c2ccc(-c3ccccc3)n3c(C(C)C)nnc23)o1 [1-081] | 0 (Herbicidal ratio of 5% or less (almost no effect)) | 2 (Herbicidal ratio of 20% or more and less than 40%) | 0 (Herbicidal ratio of 5% or less (almost no effect)) | 0 (Herbicidal ratio of 5% or less (almost no effect)) | 0 (Herbicidal ratio of 5% or less (almost no effect)) | 0 (Herbicidal ratio of 5% or less (almost no effect)) | 0 (Herbicidal ratio of 5% or less (almost no effect)) | 0 (Herbicidal ratio of 5% or less (almost no effect)) | 4 (Herbicidal ratio of 70% or more and less than 90%) | 0 (Herbicidal ratio of 5% or less (almost no effect)) | 0 (Herbicidal ratio of 5% or less (almost no effect)) | 0 (Herbicidal ratio of 5% or less (almost no effect)) | 0 (Herbicidal ratio of 5% or less (almost no effect)) | 0 (Herbicidal ratio of 5% or less (almost no effect)) | 1 (Herbicidal ratio of 5% or more and less than 20%) | 0 (Herbicidal ratio of 5% or less (almost no effect)) | 0 (Herbicidal ratio of 5% or less (almost no effect)) | 0 (Herbicidal ratio of 5% or less (almost no effect)) | 0 (Herbicidal ratio of 5% or less (almost no effect)) | 0 (Herbicidal ratio of 5% or less (almost no effect)) |  |
| Cc1nnc(NC(=O)c2ccc(-c3cc(F)cc(F)c3)n3c(C(C)C)nnc23)o1 [1-088] |  |  |  |  | 0 (Herbicidal ratio of 5% or less (almost no effect)) | 0 (Herbicidal ratio of 5% or less (almost no effect)) | 0 (Herbicidal ratio of 5% or less (almost no effect)) | 0 (Herbicidal ratio of 5% or less (almost no effect)) | 2 (Herbicidal ratio of 20% or more and less than 40%) | 0 (Herbicidal ratio of 5% or less (almost no effect)) | 0 (Herbicidal ratio of 5% or less (almost no effect)) | 0 (Herbicidal ratio of 5% or less (almost no effect)) | 0 (Herbicidal ratio of 5% or less (almost no effect)) | 0 (Herbicidal ratio of 5% or less (almost no effect)) | 0 (Herbicidal ratio of 5% or less (almost no effect)) | 0 (Herbicidal ratio of 5% or less (almost no effect)) | 0 (Herbicidal ratio of 5% or less (almost no effect)) | 0 (Herbicidal ratio of 5% or less (almost no effect)) | 0 (Herbicidal ratio of 5% or less (almost no effect)) | 0 (Herbicidal ratio of 5% or less (almost no effect)) | Q (Galium spurium): 0 (Herbicidal ratio of 5% or less (almost no effect)) |
| CC(C)c1nnc2c(C(=O)Nc3nnc(-c4ccccn4)o3)ccc(C(F)(F)F)n12 [1-101] | 0 (Herbicidal ratio of 5% or less (almost no effect)) | 1 (Herbicidal ratio of 5% or more and less than 20%) | 0 (Herbicidal ratio of 5% or less (almost no effect)) | 0 (Herbicidal ratio of 5% or less (almost no effect)) |  |  |  |  |  |  |  |  |  |  |  |  |  |  |  |  |  |
| Cc1nnc(NC(=O)c2ccc(C(F)(F)F)n3c(C(C)C)nnc23)n1C [5-001] | 0 (Herbicidal ratio of 5% or less (almost no effect)) | 1 (Herbicidal ratio of 5% or more and less than 20%) | 0 (Herbicidal ratio of 5% or less (almost no effect)) | 0 (Herbicidal ratio of 5% or less (almost no effect)) |  |  |  |  |  |  |  |  |  |  |  |  |  |  |  |  |  |
